Values of other authors as cited in patent publication US20100267960A1, “PROCESS FOR PREPARING PRAMIPEXOLE DIHYDROCHLORIDE TABLETS” (Boehringer Ingelheim Pharma GmbH & Co. KG, priority 2006, published 2010).
Structures can show the parent of a compound that is named as a salt.

Columns and labels:
[1] = not given; remark: listed apart in the source

| hygroscopicity (solid) | solubility in buffer media ([1]; buffer media, between pH 2 and pH 7.4) | Water solubility ([1]; water) | light sensitivity in solution (in solution) | stability in the solid state (solid state) | Structure (SMILES) |
| --- | --- | --- | --- | --- | --- |
| not hygroscopic | above 10 mg/mL | more than 20 mg/mL | – | – | CCCN[C@H]1CCc2nc(N)sc2C1 [Pramipexole dihydrochloride monohydrate, pramipexole dihydrochloride monohydrate] |
| – | – | – | light sensitive | very stable | CCCN[C@H]1CCc2nc(N)sc2C1 [Pramipexole, (S)-2-amino-4,5,6,7-tetrahydro-6-(propylamino)benzothiazole] |
